Experimental data taken from patent US11084800B2 (Achillion Pharmaceuticals, Inc., priority 2017, dated 2021).

Target: Human Factor D (Homo sapiens (Human), UniProt P00746)
Assay: Human Factor D Assay
Type: biochemical
Conditions: not given
In short: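 Serum-purified Factor D (80 nM final) preincubated 5 min at room temperature with compound in 50 mM Tris, 1 M NaCl, pH 7.5. Z-L-Lys-SBz and DTNB added at 100 μM each; A405 followed every 30 s for 30 min. IC50 from nonlinear regression of rates versus concentration.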

Sequence of Human Factor D (P00746 26-253): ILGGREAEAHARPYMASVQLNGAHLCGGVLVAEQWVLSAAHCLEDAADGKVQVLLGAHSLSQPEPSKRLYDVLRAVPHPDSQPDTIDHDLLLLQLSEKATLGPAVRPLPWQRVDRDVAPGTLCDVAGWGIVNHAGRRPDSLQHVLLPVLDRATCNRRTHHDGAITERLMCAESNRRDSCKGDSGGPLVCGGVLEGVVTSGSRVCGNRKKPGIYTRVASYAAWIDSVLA

| SMILES | IC50 [µM] |
| --- | --- |
| CC(=O)c1nn(CC(=O)N2[C@H](C(=O)NC(Cc3ccccc3)Cc3ccccc3)C[C@@]3(C)C[C@@H]23)c2c(C)cc(-c3cnc(C)nc3)cc12 [Compound 505, (1R,3S,5R)-2-(2-(3-Acetyl-7-methyl-5-(2-methylpyrimidin-5-yl)-1H-indazol-1-yl)acetyl)-N-(1,3-diphenylpropan-2-yl)-5-methyl-2-azabicyclo[3.1.0]hexane-3-carboxamide] | 1 to 10 |

Same assay, conditions: Factor D inhibition, assay of Example 10; read-out: IC5 (Stars)

| SMILES | IC50 [µM] |
| --- | --- |
| CC(=O)c1nn(CC(=O)N2[C@H](C(=O)Nc3cc(C(=O)O)cc(Br)n3)C[C@@]3(C)C[C@@H]23)c2ccc(-c3cnc(C)nc3)cc12 [Compound 493, 2-[(1R,3S,5R)-2-{2-[3-Acetyl-5-(2-methylpyrimidin-5-yl)indazol-1-yl]acetyl}-5-methyl-2-azabicyclo[3.1.0]hexane-3-amido]-6-bromopyridine-4-carboxylic Acid] | < 1 |
| COc1cc(-c2cnc(C)nc2)cc2c(C(C)=O)nn(CC(=O)N3[C@H](C(=O)Nc4nc(Br)ccc4C)C[C@@]4(C)C[C@@H]34)c12 [Compound 494, (1R,3S,5R)-2-(2-(3-acetyl-7-methoxy-5-(2-methylpyrimidin-5-yl)-1H-indazol-1-yl)acetyl)-N-(6-bromo-3-methylpyridin-2-yl)-5-methyl-2-azabicyclo[3.1.0]hexane-3-carboxamide] | < 1 |
| CC(=O)c1nn(CC(=O)N2[C@H](C(=O)NCC(=O)O)C[C@@]3(C)C[C@@H]23)c2c(C)cc(-c3cnc(C)nc3)cc12 [Compound 495, ((1R,3S,5R)-2-(2-(3-acetyl-7-methyl-5-(2-methylpyrimidin-5-yl)-1H-indazol-1-yl)acetyl)-5-methyl-2-azabicyclo[3.1.0]hexane-3-carbonyl)glycine] | 1 to 10 |
| CC(=O)c1nn(CC(=O)N2[C@H](C(=O)NCCC(=O)O)C[C@@]3(C)C[C@@H]23)c2c(C)cc(-c3cnc(C)nc3)cc12 [Compound 497, 3-((1R,3S,5R)-2-(2-(3-acetyl-7-methyl-5-(2-methylpyrimidin-5-yl)-1H-indazol-1-yl)acetyl)-5-methyl-2-azabicyclo[3.1.0]hexane-3-carboxamido)propanoic acid] | < 1 |
| CC(=O)c1nn(CC(=O)N2[C@H](C(=O)NCCCC(=O)O)C[C@@]3(C)C[C@@H]23)c2c(C)cc(-c3cnc(C)nc3)cc12 [Compound 498, 4-((1R,3S,5R)-2-(2-(3-acetyl-7-methyl-5-(2-methylpyrimidin-5-yl)-1H-indazol-1-yl)acetyl)-5-methyl-2-azabicyclo[3.1.0]hexane-3-carboxamido)butanoic acid] | < 1 |
| CC(=O)c1nn(CC(=O)N2[C@H](C(=O)NC(C)(C)c3cccc(Cl)c3F)C[C@@]3(C)C[C@@H]23)c2c(C)cc(-c3cnc(C)nc3)cc12 [Compound 502, (1R,3S,5R)-2-(2-(3-acetyl-7-methyl-5-(2-methylpyrimidin-5-yl)-1H-indazol-1-yl)acetyl)-N-(2-(3-chloro-2-fluorophenyl)propan-2-yl)-5-methyl-2-azabicyclo[3.1.0]hexane-3-carboxamide] | < 1 |
| CC(=O)c1nn(CC(=O)N2[C@H](C(=O)Nc3cc(C(N)=O)cc(Br)n3)C[C@@]3(C)C[C@@H]23)c2ccc(-c3cnc(C)nc3)cc12 [Compound 503, (1R,3S,5R)-2-(2-(3-acetyl-5-(2-methylpyrimidin-5-yl)-1H-indazol-1-yl)acetyl)-N-(6-bromo-4-carbamoylpyridin-2-yl)-5-methyl-2-azabicyclo[3.1.0]hexane-3-carboxamide] | < 1 |
| CC(=O)c1nn(CC(=O)N2[C@H](C(=O)Nc3cc(OCc4ccccc4)cc(Br)n3)C[C@@]3(C)C[C@@H]23)c2ccc(-c3cnc(C)nc3)cc12 [Compound 504, (1R,3S,5R)-2-(2-(3-acetyl-5-(2-methylpyrimidin-5-yl)-1H-indazol-1-yl)acetyl)-N-(4-(benzyloxy)-6-bromopyridin-2-yl)-5-methyl-2-azabicyclo[3.1.0]hexane-3-carboxamide] | < 1 |
| CNC(=O)[C@@H]1C[C@@]2(C)C[C@H]2N1C(=O)Cn1nc(C(C)=O)c2cc(-c3cnc(C)nc3)cc(C)c21 [Compound 513, (1R,3S,5R)-2-(2-(3-acetyl-7-methyl-5-(2-methylpyrimidin-5-yl)-1H-indazol-1-yl)acetyl)-N,5-dimethyl-2-azabicyclo[3.1.0]hexane-3-carboxamide] | < 1 |
| CC(=O)c1nn(CC(=O)N2[C@H](C(=O)Nc3cc(CC(=O)O)cc(Br)n3)C[C@@]3(C)C[C@@H]23)c2ccc(-c3cnc(C)nc3)cc12 [Compound 514, 2-(2-((1R,3S,5R)-2-(2-(3-acetyl-5-(2-methylpyrimidin-5-yl)-1H-indazol-1-yl)acetyl)-5-methyl-2-azabicyclo[3.1.0]hexane-3-carboxamido)-6-bromopyridin-4-yl)acetic Acid] | < 1 |
| CCCc1cc(Br)nc(NC(=O)[C@@H]2C[C@@]3(C)C[C@H]3N2C(=O)Cn2nc(C(C)=O)c3cc(-c4cnc(C)nc4)ccc32)c1 [Compound 516, (1R,3S,5R)-2-(2-(3-Acetyl-5-(2-methylpyrimidin-5-yl)-1H-indazol-1-yl)acetyl)-N-(6-bromo-4-propylpyridin-2-yl)-5-methyl-2-azabicyclo[3.1.0]hexane-3-carboxamide] | 1 to 10 |
| CC(=O)c1nn(CC(=O)N2[C@H](C(=O)NC(CC(C)C)CC(C)C)C[C@@]3(C)C[C@@H]23)c2c(C)cc(-c3cnc(C)nc3)cc12 [Compound 517, (1R,3S,5R)-2-(2-(3-acetyl-7-methyl-5-(2-methylpyrimidin-5-yl)-1H-indazol-1-yl)acetyl)-N-(2,6-dimethylheptan-4-yl)-5-methyl-2-azabicyclo[3.1.0]hexane-3-carboxamide] | < 1 |
| CNCCCNC(=O)[C@@H]1C[C@@]2(C)C[C@H]2N1C(=O)Cn1nc(C(C)=O)c2cc(-c3cnc(C)nc3)ccc21 [Compound 519, (1R,3S,5R)-2-(2-(3-acetyl-5-(2-methylpyrimidin-5-yl)-1H-indazol-1-yl)acetyl)-5-methyl-N-(3-(methylamino)propyl)-2-azabicyclo[3.1.0]hexane-3-carboxamide] | 1 to 10 |

Same assay, conditions: Table 8; Factor D 80 nM, substrate Z-L-Lys-SBz; read-out: IC50

| SMILES | IC50 [µM] |
| --- | --- |
| Cc1ncc(-c2ccc3c(c2)c(C(=O)NCC(F)(F)F)nn3CC(=O)N2[C@H](C(=O)Nc3nc(Br)ccc3C)C[C@@]3(C)C[C@@H]23)cn1 [Compound 499, 1-(2-((1R,3S,5R)-3-((6-bromo-3-methylpyridin-2-yl)carbamoyl)-5-methyl-2-azabicyclo[3.1.0]hexan-2-yl)-2-oxoethyl)-5-(2-methylpyrimidin-5-yl)-N-(2,2,2-trifluoroethyl)-1H-indazole-3-carboxamide] | < 1 |
| Cc1ncc(-c2ccc3c(c2)c(C(=O)NCC(C)C)nn3CC(=O)N2[C@H](C(=O)Nc3nc(Br)ccc3C)C[C@@]3(C)C[C@@H]23)cn1 [Compound 500, 1-(2-((1R,3S,5R)-3-((6-bromo-3-methylpyridin-2-yl)carbamoyl)-5-methyl-2-azabicyclo[3.1.0]hexan-2-yl)-2-oxoethyl)-N-isobutyl-5-(2-methylpyrimidin-5-yl)-1H-indazole-3-carboxamide] | < 1 |
| Cc1ncc(-c2cc(C#N)c3c(c2)c(C(N)=O)nn3CC(=O)N2[C@H](C(=O)Nc3nc(Br)ccc3C)C[C@@]3(C)C[C@@H]23)cn1 [Compound 515] | < 1 |
